Assay results from patent US20240025862A1, “SUBSTITUTED N-PHENYLURACILS AND SALTS THEREOF, AND USE THEREOF AS HERBICIDAL ACTIVE SUBSTANCES” (Bayer Aktiengesellschaft, priority 2020, published 2024).

Assays:
Type in all cases: in vivo
Glycine max (GLXMA) = assay: Pre-emergence crop plant compatibility, greenhouse pot test; conditions: 20 g/ha
From the text: (§1) Seeds of monocotyledonous and dicotyledonous weed plants and crop plants were placed in plastic or organic planting pots and covered with soil. The compounds of the invention, formulated in the form of wettable powders (WP) or as emulsion concentrates (EC), were then applied to the surface of the covering soil as aqueous suspension or emulsion with addition of 0.5% additive at a water application rate equivalent to 600 l/ha (converted). After the treatment, the pots were placed in a greenhouse and kept under good growth conditions for the test plants. After about 3 weeks, the effect of the preparations was scored visually in comparison with untreated controls as percentages. For example, 100% activity=the plants have died, 0% activity=like control plants.
(§2) The observed effects on selected crop plants are reported here in comparison to the untreated controls (values in %).

Zea mays (ZEAMX) = assay: as above; conditions: 20 g/ha
From the text: as §1, §2

[1] = test system: Amaranthus retroflexus (AMARE); assay: Post-emergence herbicidal action, greenhouse pot test; conditions: rated visually after about 3 weeks vs untreated controls, 100% = plants have died
Outline: (§3)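 Greenhouse-grown weeds in sandy loam were sprayed post-emergence at the one-leaf stage, 2–3 weeks after sowing. Compounds were formulated as WP or EC in water with 0.5% additive at 600 l/ha, at rates of 20 g/ha or less. Visual rating after about 3 weeks used a scale from 0% (like untreated control) to 100% (plants dead).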

Viola tricolor (VIOTR) = assay: as above
Outline: as §3

[2] = test system: Polygonum convolvulus (POLCO); assay: as above; conditions: dosage 5 g/ha
Outline: as §3

Veronica persica (VERPE) [3] = assay: as above
Outline: as §3

[4] = test system: Abutilon theophrasti (ABUTH); assay: as above; conditions: rated visually after about 3 weeks vs untreated controls, 100% = plants have died
Outline: as §3

[5] = test system: Pharbitis purpurea (PHBPU); assay: as above; conditions: dosage 5 g/ha
Outline: as §3

[6] = test system: Amaranthus retroflexus (AMARE); assay: Pre-emergence herbicidal action, greenhouse pot test; conditions: scored after about 3 weeks
From the text: as §1
(§4) Tables B1 to B10 below show the effects of selected compounds of the general formula (I) according to Tables I.1 to I.33 on various harmful plants and at an application rate corresponding to 80 g/ha and less, which were obtained by the experimental method specified above. The appendices “a”, “b” and “c” give differentiation by different dosage with otherwise the same harmful plants tested.

Lolium rigidum (LOLRI) = assay: as above; conditions: scored after about 3 weeks
From the text: as §1, §4

[7] = test system: Alopecurus myosuroides (ALOMY); assay: as above; conditions: scored after about 3 weeks
From the text: as §1, §4

[8] = test system: Echinochloa crus-galli (ECHCG); assay: as above; conditions: scored after about 3 weeks
From the text: as §1, §4

[9] = test system: Digitaria sanguinalis (DIGSA); assay: as above; conditions: scored after about 3 weeks
From the text: as §1, §4

[10] = test system: Matricaria inodora (MATIN); assay: as above; conditions: scored after about 3 weeks
From the text: as §1, §4

Veronica persica (VERPE) [11] = assay: as above; conditions: scored after about 3 weeks
From the text: as §1, §4

Avena fatua (AVEFA) = assay: as above; conditions: 80 g/ha, scored after about 3 weeks
From the text: as §1, §4

[12] = test system: Abutilon theophrasti (ABUTH); assay: as above; conditions: scored after about 3 weeks
From the text: as §1, §4

[13] = test system: Pharbitis purpurea (PHBPU); assay: as above; conditions: scored after about 3 weeks
From the text: as §1, §4

[14] = test system: Alopecurus myosuroides (ALOMY); assay: Post-emergence herbicidal action, greenhouse pot test (also comparative test C); conditions: rated visually after about 3 weeks vs untreated controls, 100% = plants have died
Outline: (§5)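 Green parts of one-leaf-stage plants are sprayed at 600 l/ha with formulated compound plus 0.5% additive, then kept under optimum greenhouse conditions for about 3 weeks. Damage is scored visually, where 100% means dead plants and 0% means no difference from controls.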

[15] = test system: Echinochloa crus-galli (ECHCG); assay: as above; conditions: dosage 5 g/ha
Outline: as §5

Setaria viridis (SETVI) = assay: as above
Outline: as §5

[16] = test system: Matricaria inodora (MATIN); assay: as above
Outline: as §5

[17] = test system: Triticum aestivum (TRZAS); assay: Post-emergence crop plant compatibility, greenhouse pot test; conditions: 1.25 g/ha, vs untreated controls
Outline: (§6)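 Seeds are sown in sandy loam and grown under controlled greenhouse conditions. At the one-leaf stage (2–3 weeks), foliage is sprayed with the formulated compound in water containing 0.5% additive at 600 l/ha. About 3 weeks later, injury is rated visually in % against untreated plants.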

Brassica napus (BRSNW) = assay: as above; conditions: 1.25 g/ha, vs untreated controls
Outline: as §6

Oryza sativa (ORYSA) = assay: Post-emergence crop plant compatibility, greenhouse pot test (also comparative test C); conditions: vs untreated controls
Outline: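 Rice and other crops sprayed post-emergence at one-leaf stage (2–3 weeks after sowing) with WP or EC formulations plus 0.5% additive at 600 l/ha water. Visual rating about 3 weeks later versus untreated controls (100% = dead, 0% = like control); suffixes a–c denote different doses.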

In the case of COCCOCCOC(=O)COc1ccccc1Oc1cc(-n2c(=O)cc(C(F)(F)F)n(C)c2=O)c(F)cc1Cl [I.7-23], the “Pre-emergence action against GLXMA in %” value (Glycine max (GLXMA)) is reported as 10%, the “Pre-emergence action against ZEAMX in %” value (Zea mays (ZEAMX)) is reported as 20% and the “Post-emergence action at 1.25 g/ha against AMARE in %” value ([1]; 1.25 g/ha) is reported as 100%. For the same molecule, the “Post-emergence action at 5 g/ha against AMARE in %” value ([1]; 5 g/ha) was 100%, the “Post-emergence action against VIOTR” value (Viola tricolor (VIOTR); 1.25 g/ha) was 100% and the “Post-emergence action against VIOTR” value (Viola tricolor (VIOTR); 5 g/ha) was 100%. The “Post-emergence action against POLCO in %” value [2] was 100%, the “Post-emergence action against VERPE” value (Veronica persica (VERPE) [3]; 1.25 g/ha) was 90% and the “Post-emergence action against VERPE” value (Veronica persica (VERPE) [3]; 5 g/ha) was 100%. For the same molecule, the “Post-emergence action at 1.25 g/ha against ABUTH in %” value ([4]; 1.25 g/ha) was 100%, the “Post-emergence action at 5 g/ha against ABUTH in %” value ([4]; 5 g/ha) was 100% and the “Post-emergence action against PHBPU in %” value [5] was 100%. The “Pre-emergence action against AMARE in %” value ([6]; 20 g/ha) was 100%, the “Pre-emergence action against AMARE in %” value ([6]; 80 g/ha) was 100% and the “Pre-emergence action against LOLRI in %” value (Lolium rigidum (LOLRI); 20 g/ha) was 90%. For the same molecule, the “Pre-emergence action against LOLRI in %” value (Lolium rigidum (LOLRI); 80 g/ha) was 100%, the “Pre-emergence action against ALOMY in %” value ([7]; 20 g/ha) was 90% and the “Pre-emergence action against ALOMY in %” value ([7]; 80 g/ha) was 100%. For the same molecule, the “Pre-emergence action against ECHCG in %” value ([8]; 20 g/ha) was 80%, the “Pre-emergence action against ECHCG in %” value ([8]; 80 g/ha) was 90% and the “Pre-emergence action against DIGSA in %” value ([9]; 20 g/ha) was 100%. For the same molecule, the “Pre-emergence action against DIGSA in %” value ([9]; 80 g/ha) was 100%, the “Pre-emergence action against MATIN in %” value ([10]; 20 g/ha) was 100% and the “Pre-emergence action against MATIN in %” value ([10]; 80 g/ha) was 100%. For the same molecule, the “Pre-emergence action against VERPE in %” value (Veronica persica (VERPE) [11]; 20 g/ha) was 100%, the “Pre-emergence action against VERPE in %” value (Veronica persica (VERPE) [11]; 80 g/ha) was 100% and the “Pre-emergence action against AVEFA in %” value (Avena fatua (AVEFA)) was 90%. The “Pre-emergence action against ABUTH in %” value ([12]; 20 g/ha) was 100%, the “Pre-emergence action against ABUTH in %” value ([12]; 80 g/ha) was 100% and the “Pre-emergence action against PHBPU in %” value ([13]; 20 g/ha) was 100%. For the same molecule, the “Pre-emergence action against PHBPU in %” value ([13]; 80 g/ha) was 100%, the “Post-emergence action at 1.25 g/ha against ALOMY in %” value ([14]; 1.25 g/ha) was 80% and the “Post-emergence action at 5 g/ha against ALOMY in %” value ([14]; 5 g/ha) was 100%. The “Post-emergence action against ECHCG in %” value [15] was 100%, the “Post-emergence action against SETVI in %” value (Setaria viridis (SETVI); dosage 1.25 g/ha) was 100% and the “Post-emergence action against SETVI in %” value (Setaria viridis (SETVI); dosage 5 g/ha) was 100%. For the same molecule, the “Post-emergence action against MATIN in %” value ([16]; dosage 1.25 g/ha) was 90%, the “Post-emergence action against MATIN in %” value ([16]; dosage 5 g/ha) was 100% and the “Post-emergence action against TRZAS (crop plant compatibility)” value [17] was 10%. The “Post-emergence action against BRSNW (crop plant compatibility)” value (Brassica napus (BRSNW)) was 20%, the “Post-emergence action against ORYSA (crop plant compatibility)” value (Oryza sativa (ORYSA); 1.25 g/ha) was 10% and the “Post-emergence action against ORYSA (crop plant compatibility)” value (Oryza sativa (ORYSA); 5 g/ha) was 20%.
